US20240368168A1, “SARM1 ENZYME ACTIVITY INHIBITOR AND APPLICATION THEREOF” (ARTIVILA BIOPHARMA, priority 2021, published 2024)

Tests used:
[1] = target: T1, SARM1 protein in iSARM1 (HEK293) cells (Homo sapiens, UniProt Q6SZW1); assay: Inhibitory activity in inducible SARM1 overexpressing cell line, intracellular cADPR level; assay type: cell-based; conditions: activator CZ-48 100 μM, cADPR content
T1 construct: The full-length SARM1 was synthesized into the pUC57 plasmid by WZ Biosciences Inc., and PCR was performed using pUC57-SARM1 as a DNA template
T1 sequence (Q6SZW1 28-724): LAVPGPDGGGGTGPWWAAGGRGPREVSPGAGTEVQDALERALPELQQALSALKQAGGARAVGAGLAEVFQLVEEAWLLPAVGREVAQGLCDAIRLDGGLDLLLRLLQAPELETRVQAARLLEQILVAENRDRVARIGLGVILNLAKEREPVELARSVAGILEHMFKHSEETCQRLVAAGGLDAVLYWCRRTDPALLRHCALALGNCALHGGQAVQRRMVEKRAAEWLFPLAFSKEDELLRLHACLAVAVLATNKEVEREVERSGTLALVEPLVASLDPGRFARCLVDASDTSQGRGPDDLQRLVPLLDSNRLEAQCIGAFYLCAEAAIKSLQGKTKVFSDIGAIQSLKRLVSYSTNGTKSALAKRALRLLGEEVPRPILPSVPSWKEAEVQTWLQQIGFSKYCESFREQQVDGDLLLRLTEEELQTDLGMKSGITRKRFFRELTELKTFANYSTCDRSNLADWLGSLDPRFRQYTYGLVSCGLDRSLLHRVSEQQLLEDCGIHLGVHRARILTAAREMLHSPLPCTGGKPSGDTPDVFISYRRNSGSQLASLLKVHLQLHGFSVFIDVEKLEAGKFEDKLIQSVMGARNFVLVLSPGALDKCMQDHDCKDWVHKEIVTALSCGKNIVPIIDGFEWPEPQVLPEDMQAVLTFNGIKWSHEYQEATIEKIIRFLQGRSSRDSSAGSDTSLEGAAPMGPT
Protocol: In this example, the gene sequence of SARM1 was amplified using PCR, and constructed into pInducer20-neo plasmid. pInducer20-SARM1 virus was packaged in a liposome and infected HEK293 to obtain an inducible SARM1-overexpressing cell line, which was labeled as iSARM1 (HEK293). The specific preparation was as follows:
First, a 96-well culture plate was treated with 0.05 mg/ml polylysine for 5 minutes and washed once with PBS. 3×10^4 iSARM1 (HEK293) cells were plated into the 96-well plate and cultured overnight in a 37° C. and 5% incubator. The next day, the cells were added with an inhibitor with a final concentration of 50 μM, incubated in the incubator for 1.5 hours, added with activator CZ-48 with a final concentration of 100 μM, and incubated for 16 hours. Meanwhile, the cells without adding CZ-48 or without adding drug were set as control group. Finally, the intracellular cADPR level was detected to represent the activity of SARM1, and the inhibition rate of SARM1 in cells by 50 μM inhibitor was calculated.
The cADPR measurement was performed as follows. First, the cells were washed once with PBS, and added with 150 μl of pre-cooled 0.6M perchloric acid (PCA) to quickly lyse the cells and precipitate the protein. The PCA supernatant was transferred to a 1.5 ml centrifuge tube. The protein in the culture medium was dissolved again with 100 μl of 1M NaOH. The supernatant was added with 0.5 ml of organic reagent mixture (trioctylamine:chloroform=1:3) to extract PCA from water. After sufficient shaking, the mixture was centrifuged at 12,000 rpm for 10 minutes. The solution was divided into 3 layers: the upper aqueous phase, containing the small molecules of interest; the lower organic phase, in which PCA was dissolved; and a thin protein layer between the upper and lower layers. The upper layer was transferred to a new centrifuge tube, added with 1M Tris-Mg at a ratio of 1:100 (1M Tris (pH 8.0): 1M MgCl2=9:1), added with NADase at a ratio of 1:250, and treated at 37° C. overnight to remove NAD^+ from the mixed solution. After the treatment was completed, the mixed solution was filtered using Millipore's 10 K 96-well filter plate to remove NADase.
The cADPR content in the solution was determined through Cycling analysis method. The specific steps were as follows: 20 μl of the sample to be tested or the cADPR standard was taken and added to a 96-well opaque white plate. Preparation of reaction solution: 9.6 ml of PBS (pH 7.4), 200 μl of ethanol, 150 μl of 1 mg/ml AD, 10 μl of 10 mM FMN, 5 μl of 18 mg/ml Diaphorase, 10 μl of 10 mM Resazurin, and 100 μl of 1M Nam. Half of the reaction solution was divided and added with 0.2 μg/ml cyclase. The reaction solution without adding cyclase was used as control experiment. Each sample was divided into two groups, 3 replicates in each group. The reaction solutions containing or not containing cyclase were added to each group to perform the reaction. The reaction kinetic curve within 30 minutes was recorded (Ex:Em=544/599). The average slope of the reaction was calculated. Conversion was performed according to cADPR standard to obtain the accurate cADPR content. A curve of intracellular cADPR content vs corresponding inhibitor concentration was plotted. The half inhibitory concentration of the inhibitor was calculated.

dN-SARM1 protein = target: T2, dN-SARM1 protein (Homo sapiens, UniProt Q6SZW1); assay: In vitro biochemical assay for inhibiting SARM1 enzymatic activity (IC50), PC6 fluorescence method; conditions: 50 μM NAD, 50 μM PC6, 50 μM NMN activator
T2 construct: the N-terminal mitochondrial localization signal peptide of SARM1 was removed
T2 sequence (Q6SZW1 28-724): T1 sequence (Q6SZW1 28-724)
In short: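 Activity read as the rate of PC6 fluorescence change (390 nm excitation, 520 nm emission) over a 30 min room-temperature reaction containing final 50 μM each of NAD, PC6 and NMN activator. Enzyme, 0.05 μg/ml dN-SARM1 in 50 mM Tris-HCl pH 7.5, first incubated 10 min with compound diluted serially from 200 μM; IC50 calculated.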

Row | EC50 [1] [nM] | IC50 (dN-SARM1 protein) [nM] | Compound
1 | 1000 to 10000 | < 1000 | Cc1ncsc1-c1ccc(CNC(=O)[C@@H]2C[C@@H](O)CN2C(=O)[C@@H](NC(=O)COCCOCCOCC(=O)Nc2cccc(-c3cnc4ccc(N(C)C(=O)OC(C)(C)C)cn34)c2)C(C)(C)C)cc1 [Compound 119, Tert-butyl (3-(3-((S)-13-((2S,4R)-4-hydroxy-2-((4-(4-methylthiazol-5-yl)benzyl)carbamoyl)pyrrolidin-1-carbonyl)-14,14-dimethyl-11-oxo-3,6,9-trioxa-12-azaglutaramide)phenyl)imidazo[1,2-a]pyridin-6-yl)(methyl)carbamate]
2 | < 1000 | < 1000 | CN(C(=O)OC(C)(C)C)c1ccc2ncc(-c3cccc(NC(=O)COCCOCCOCC(=O)Nc4cccc(-c5cnc6ccc(N(C)C(=O)OC(C)(C)C)cn56)c4)c3)n2c1 [Compound 121, ((((2,2′-((oxybis(ethane-2,1-diyl))bis(oxy))bis(acetyl))bis(azadiyl))bis(3,1-phylene))bis(imidazo[1,2-a]pyridin-3,6-diyl))bis(tert-butyl (methyl)carbamate)]
3 | 1000 to 10000 | 1000 to 10000 | CN(C(=O)OC(C)(C)C)c1ccc2ncc(-c3cccc(OCCOCc4ccccc4)c3)n2c1 [Compound 156]
4 | 1000 to 10000 | 1000 to 10000 | CNc1ccc2ncc(-c3cccc(OCCOCc4ccccc4)c3)n2c1 [Compound 157]
5 | < 1000 | 1000 to 10000 | CN(C(=O)OC(C)(C)C)c1ccc2ncc(-c3cccc(N(C)C(=O)C4CCOCC4)c3)n2c1 [Compound 158, tert-butyl methyl (3-(3-(N-methyltetrahydro-2H-pyran-4-carboxamido)phenyl)imidazo[1,2-a]pyridin-6-yl)carbamate]
6 | 1000 to 10000 | < 1000 | CNc1ccc2ncc(-c3cccc(N(C)C(=O)C4CCOCC4)c3)n2c1 [Compound 159]
7 | < 1000 | < 1000 | CN(C(=O)COC1CCOC1)c1cccc(-c2cnc3ccc(N(C)C(=O)OC(C)(C)C)cn23)c1 (centres unmarked) [Compound 160]
8 | 1000 to 10000 | < 1000 | CN(C(=O)OC(C)(C)C)c1ccc2ncc(-c3cc4cc[nH]c4cn3)n2c1 [Compound 161, tert-butyl (3-(1H-pyrrolo[2,3-c]pyridin-5-yl)imidazo[1,2-a]pyridin-6-yl)(methyl)carbamate]
9 | < 1000 | < 1000 | CNc1ccc2ncc(-c3cc4cc[nH]c4cn3)n2c1 [Compound 162, N-methyl-3-(1H-pyrrolo[2,3-c]pyridin-5-yl)imidazo[1,2-a]pyridin-6-amine]
10 | 1000 to 10000 | < 1000 | CN(C(=O)OC(C)(C)C)c1ccc2ncc(-c3cccc4c3C(=O)NC4)n2c1 [Compound 164]
11 | < 1000 | < 1000 | CN(C(=O)OC(C)(C)C)c1ccc2ncc(-c3cccc4ncsc34)n2c1 [Compound 167]
12 | 1000 to 10000 | < 1000 | CN(C(=O)OC(C)(C)C)c1ccc2ncc(-c3nn4ccnc4s3)n2c1 [Compound 168]
13 | 1000 to 10000 | < 1000 | CN(C(=O)OC(C)(C)C)c1ccc2ncc(-c3ccn4ccnc4c3)n2c1 [Compound 169]
14 | < 1000 | < 1000 | CNc1ccc2ncc(-c3cccc(NC(=O)C4CCOCC4)n3)n2c1 [Compound 171]
15 | 1000 to 10000 | 1000 to 10000 | CN(C(=O)OC(C)(C)C)c1ccc2ncc(-c3ccc(NC(=O)c4ccccc4)s3)n2c1 [Compound 181]
16 | 1000 to 10000 | 1000 to 10000 | CNc1ccc2ncc(-c3nccc4[nH]ccc34)n2c1 [Compound 183]

Row | EC50 [1] [nM] | IC50 (dN-SARM1 protein) [nM] | Compound
17 | 1000 to 10000 | 1000 to 10000 | CNc1ccc2ncc(-c3nn4ccnc4s3)n2c1 [Compound 185]
18 | < 1000 | 1000 to 10000 | Ic1cnc2ccc(-n3cccn3)cn12 [Compound 201, 3-iodo-6-(1H-pyrazol-1-yl)imidazo[1,2-a]pyridine]
19 | < 1000 | 1000 to 10000 | O=C1CCCN1c1ccc2ncc(-c3cccc4[nH]ccc34)n2c1 [Compound 205]
20 | < 1000 | 1000 to 10000 | C=CCN(C(=O)OC(C)(C)C)c1ccc2ncc(-c3cccc(N)c3)n2c1 [Compound 211, tert-butyl allyl(3-(3-aminophenyl)imidazo[1,2-a]pyridin-6-yl)carbamate]
21 | < 1000 | 1000 to 10000 | CC(C)(C)OC(=O)N(C/C=C/c1cccc(N)c1)c1ccc2ncc(-c3cccc(N)c3)n2c1 [Compound 212, tert-butyl (E)-(3-(3-aminophenyl)allyl)(3-(3-aminophenyl)imidazo[1,2-a]pyridin-6-yl)carbamate]
22 | < 1000 | 1000 to 10000 | C=CCN(C(=O)OC(C)(C)C)c1ccc2ncc(-c3cccc(NC(=O)C4CCOCC4)c3)n2c1 [Compound 213, tert-butyl allyl(3-(3-(tetrahydro-2H-pyran-4-carboxamido)phenyl)imidazo[1,2-a]pyridin-6-yl)carbamate]
23 | 1000 to 10000 | 1000 to 10000 | CC(C)(C)OC(=O)N(C/C=C/c1cccc(N)c1)c1ccc2ncc(-c3cccc(NC(=O)C4CCOCC4)c3)n2c1 [Compound 219]
24 | 1000 to 10000 | 1000 to 10000 | Nc1cccc(/C=C/CNc2ccc3ncc(-c4ccccc4)n3c2)c1 [Compound 220]
25 | < 1000 | 1000 to 10000 | CC(C)(C)OC(=O)N(C/C=C/c1cccc(NC(=O)C2CCOCC2)c1)c1ccc2ncc(-c3ccccc3)n2c1 [Compound 221]
26 | < 1000 | 1000 to 10000 | O=C(Nc1cccc(-c2cnc3ccc(N4CCOCC4)cn23)c1)[C@H]1C[C@H](N2CCCCC2)C1 [Compound 227]
27 | 1000 to 10000 | 1000 to 10000 | O=C(Nc1cccc(-c2cnc3ccc(N4CCOCC4)cn23)c1)[C@H]1C[C@@H](N2CCOCC2)C1 [Compound 230]
28 | 1000 to 10000 | 1000 to 10000 | O=C(Nc1cccc(-c2cnc3ccc(N4CCOCC4)cn23)c1)[C@H]1C[C@H](N2CCOCC2)C1 [Compound 231]
29 | 1000 to 10000 | 1000 to 10000 | O=C(Cc1ccc(Cl)cc1)Nc1cccn2c(-c3ccncc3)cnc12 [Compound 234]
30 | 1000 to 10000 | < 1000 | CNc1ccc2ncc(-c3cccc(NC(=O)C4CCCO4)c3)n2c1 (centres unmarked) [Compound 236]
31 | < 1000 | < 1000 | CN(C(=O)OC(C)(C)C)c1ccc2ncc(-c3cccc(NC(=O)COC4CCOC4)c3)n2c1 (centres unmarked) [Compound 237]
